In paper PMC11396129, “Oxindole–benzothiazole hybrids as CDK2 inhibitors and anticancer agents: design, synthesis and biological evaluation” (BMC Chemistry, 2024):

Experiments:
[1] = test system: NCI 60 cancer cell line panel; test: NCI 60 panel growth inhibition (SRB), whole panel; type: cell-based, human; conditions: for Mean GI%: mean over NCI 60 panel, 10 μM
How it was run: (§1)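 Selected compounds progressed from a single-dose mean-graph screen to five-concentration testing. Percentage growth, with negative values indicating cell kill below Tz, was computed per level, giving TGI among three parameters.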

[2] = test system: NCI-H23; test: NCI 60 panel growth inhibition (SRB), non-small cell lung cancer; type: cell-based, human; conditions: for GI%: NCI-H23, 10 μM
How it was run: as §1

[3] = test system: NCI-H226; test: as above; type: cell-based, human; conditions: for GI%: NCI-H226, 10 μM
How it was run: as §1

[4] = test system: NCI-H522; test: as above; type: cell-based, human; conditions: for GI%: NCI-H522, 10 μM
How it was run: as §1

[5] = test system: EKVX; test: as above; type: cell-based, human; conditions: for GI%: 10 μM
How it was run: as §1

[6] = test system: NCI-H460; test: as above; type: cell-based, human; conditions: for GI%: NCI-H460, 10 μM
How it was run: as §1

[7] = test system: HOP-62; test: as above; type: cell-based, human
How it was run: as §1

[8] = test system: NCI-H322M; test: as above; type: cell-based, human; conditions: for GI%: 10 μM
How it was run: as §1

[9] = test system: HOP-92; test: as above; type: cell-based, human; conditions: for GI%: HOP-92, 10 μM
How it was run: as §1

[10] = test system: A549/ATCC; test: as above; type: cell-based, human; conditions: for GI%: 10 μM
How it was run: as §1

[11] = test system: U251; test: NCI 60 panel growth inhibition (SRB), CNS cancer; type: cell-based, human; conditions: for GI%: U251, 10 μM
How it was run: as §1

[12] = test system: SF-268; test: NCI 60 panel growth inhibition (SRB), CNS cancer; type: cell-based, human; conditions: for GI%: SF-268, 10 μM
How it was run: as §1

[13] = test system: SF-295; test: NCI 60 panel growth inhibition (SRB), CNS cancer; type: cell-based, human; conditions: for GI%: SF-295, 10 μM
How it was run: as §1

[14] = test system: SF-539; test: NCI 60 panel growth inhibition (SRB), CNS cancer; type: cell-based, human; conditions: for GI%: SF-539, 10 μM
How it was run: as §1

[15] = test system: SNB-75; test: NCI 60 panel growth inhibition (SRB), CNS cancer; type: cell-based, human; conditions: SNB-75, 10 μM
How it was run: as §1

[16] = test system: SNB-19; test: NCI 60 panel growth inhibition (SRB), CNS cancer; type: cell-based, human; conditions: for GI%: SNB-19, 10 μM
How it was run: as §1

[17] = test system: SK-OV-3; test: NCI 60 panel growth inhibition (SRB), ovarian cancer; type: cell-based, human
How it was run: as §1

[18] = test system: OVCAR-8; test: as above; type: cell-based, human; conditions: for GI%: OVCAR-8, 10 μM
How it was run: as §1

[19] = test system: NCI/ADR-RES; test: as above; type: cell-based, human; conditions: for GI%: 10 μM
How it was run: as §1

[20] = test system: OVCAR-4; test: as above; type: cell-based, human; conditions: for GI%: OVCAR-4, 10 μM
How it was run: as §1

[21] = test system: OVCAR-5; test: as above; type: cell-based, human; conditions: for GI%: OVCAR-5, 10 μM
How it was run: as §1

[22] = test system: OVCAR-3; test: as above; type: cell-based, human; conditions: for GI%: OVCAR-3, 10 μM
How it was run: as §1

[23] = test system: IGROV1; test: as above; type: cell-based, human; conditions: for GI%: IGROV1, 10 μM
How it was run: as §1

[24] = test system: SW-620; test: NCI 60 panel growth inhibition (SRB), colon cancer; type: cell-based, human; conditions: for GI%: SW-620, 10 μM
How it was run: as §1

[25] = test system: HCC-2998; test: NCI 60 panel growth inhibition (SRB), colon cancer; type: cell-based, human; conditions: for GI%: HCC-2998, 10 μM
How it was run: as §1

[26] = test system: KM12; test: NCI 60 panel growth inhibition (SRB), colon cancer; type: cell-based, human; conditions: for GI%: KM12, 10 μM
How it was run: as §1

[27] = test system: HCT-116; test: NCI 60 panel growth inhibition (SRB), colon cancer; type: cell-based, human; conditions: for GI%: HCT-116, 10 μM
How it was run: as §1

[28] = test system: HS 578T; test: NCI 60 panel growth inhibition (SRB), breast cancer; type: cell-based, human; conditions: for GI%: 10 μM
How it was run: as §1

[29] = test system: MDA-MB-231/ATCC; test: as above; type: cell-based, human; conditions: for GI%: 10 μM
How it was run: as §1

[30] = test system: MCF7; test: as above; type: cell-based, human; conditions: for GI%: MCF7, 10 μM
How it was run: as §1

[31] = test system: BT-549; test: as above; type: cell-based, human; conditions: for GI%: BT-549, 10 μM
How it was run: as §1

[32] = test system: MDA-MB-468; test: as above; type: cell-based, human; conditions: for GI%: MDA-MB-468, 10 μM
How it was run: as §1

[33] = test system: T-47D; test: as above; type: cell-based, human
How it was run: as §1

With `COc1cccc(-c2nc3ccccc3s2)c1OCC(=O)NN=C1C(=O)Nc2ccc([N+](=O)[O-])cc21` [Compound 9j, 2-(2-(Benzo[d]thiazol-2-yl)-6-methoxyphenoxy)-N′-(5-nitro-2-oxoindolin-3-ylidene)acetohydrazide] the “Mean GI%” value [1] was “– (GI% < 5%)”, the GI% [2] was 22.82% and the GI% [3] was 21.82%. The GI% [4] was “– (GI% < 5%)”, the GI% [5] was 26.64% and the GI% [6] was “– (GI% < 5%)”. For the same compound, the GI% ([7]; HOP-62, 10 μM) was “– (GI% < 5%)”, the GI% [8] was 6.18% and the GI% [9] was 30.70%. The GI% [10] was 5.97%, the GI% [11] was “– (GI% < 5%)” and the GI% [12] was “– (GI% < 5%)”. For the same compound, the GI% [13] was 11.71%, the GI% [14] was “– (GI% < 5%)” and the GI% [15] was “– (GI% < 5%)”. For the same compound, the GI% [16] was 5.77%, the GI% ([17]; SK-OV-3, 10 μM) was “– (GI% < 5%)” and the GI% [18] was “– (GI% < 5%)”. For the same compound, the GI% [19] was 6.51%, the GI% [20] was 5.61% and the GI% [21] was “– (GI% < 5%)”. For the same compound, the GI% [22] was “– (GI% < 5%)”, the GI% [23] was “– (GI% < 5%)” and the GI% [24] was “– (GI% < 5%)”. For the same compound, the GI% [25] was “– (GI% < 5%)”, the GI% [26] was 5.79% and the GI% [27] was 7.08%. The GI% [28] was “– (GI% < 5%)”, the GI% [29] was 8.73% and the GI% [30] was 25.07%. The GI% [31] was “– (GI% < 5%)”, the GI% [32] was 6.21% and the GI% ([33]; 10 μM) was “– (GI% < 5%)”. The melting point was 276 to 278 °C.
With `COc1ccc2c(c1)C(=NNC(=O)COc1cc(-c3nc4ccccc4s3)ccc1OC)C(=O)N2` [Compound 9o, 2-(5-(Benzo[d]thiazol-2-yl)-2-methoxyphenoxy)-N′-(5-methoxy-2-oxoindolin-3-ylidene)acetohydrazide] the GI50 ([1]; Homo sapiens, five dose, NCI cancer cell lines, read-out: GI50 reached (most sensitive NCI cell line)) was 2.02 µM, the “Mean GI%” value [1] was 55.91% and the GI50 ([2]; Homo sapiens, NCI-H23, five dose) was 3.03 µM. For the same compound, the GI% [2] was 84.74%, the GI50 ([3]; Homo sapiens, NCI-H226, five dose) was 21.3 µM and the GI% [3] was 5.08%. It also gave a GI50 ([4]; Homo sapiens, NCI-H522, five dose) of 48 µM, a GI% [4] of 5.70% and a GI% [5] of 55.62%. The GI50 ([5]; Homo sapiens, five dose) was 20 µM, the GI50 ([6]; Homo sapiens, NCI-H460, five dose) was 9.26 µM and the GI% [6] was 106.89%. The GI50 ([7]; Homo sapiens, HOP-62, five dose) was 7.84 µM, the GI% [8] was 9.70% and the GI50 ([8]; Homo sapiens, five dose) was greater than 100 µM. It also gave a GI% [9] of 15.22%, a GI50 ([9]; Homo sapiens, HOP-92, five dose) of 51.9 µM and a GI% [10] of 39.87%. It also gave a GI50 ([10]; Homo sapiens, five dose) of 30.9 µM, a GI50 ([11]; Homo sapiens, U-251, U251, five dose) of 2.02 µM and a GI% [11] of 143.46%. It also gave a GI50 ([12]; Homo sapiens, SF-268, five dose) greater than 100 µM, a GI% [12] of 51.91% and a GI50 ([13]; Homo sapiens, SF-295, five dose) of 11.8 µM. The GI% [13] was 31.59%, the GI50 ([14]; Homo sapiens, SF-539, five dose) was 39.9 µM and the GI% [14] was 12.44%. The GI% [15] was “– (GI% < 5%)”, the GI50 ([16]; Homo sapiens, SNB-19, five dose) was 5.72 µM and the GI% [16] was 49.50%. It also gave a GI50 ([17]; Homo sapiens, SK-OV-3, five dose) of 48.9 µM, a GI50 ([18]; Homo sapiens, OVCAR-8, five dose) of 4.02 µM and a GI% [18] of 93.38%. For the same compound, the GI% [19] was 130.36%, the GI50 ([19]; Homo sapiens, five dose) was 18.5 µM and the GI50 ([20]; Homo sapiens, OVCAR-4, five dose) was greater than 100 µM. For the same compound, the GI% [20] was 68.35%, the GI50 ([21]; Homo sapiens, OVCAR-5, five dose) was greater than 100 µM and the GI% [21] was 9.28%. The GI50 ([22]; Homo sapiens, OVCAR-3, five dose) was 2.49 µM, the GI% [22] was 94.12% and the GI50 ([23]; Homo sapiens, IGROV-1, IGROV1, five dose) was 2.22 µM. It also gave a GI% [23] of 18.68%, a GI50 ([24]; Homo sapiens, SW-620, five dose) of 2.27 µM and a GI% [24] of 148.26%. It also gave a GI% [25] of 44.35%, a GI50 ([25]; Homo sapiens, HCC-2998, five dose) of 5.34 µM and a GI50 ([26]; Homo sapiens, KM12, five dose) greater than 100 µM. For the same compound, the GI% [26] was 36.53%, the GI% [27] was 87.90% and the GI50 ([27]; Homo sapiens, HCT-116, five dose) was 4.5 µM. For the same compound, the GI% [28] was 34.64%, the GI50 ([28]; Homo sapiens, five dose) was 24.8 µM and the GI% [29] was 75.41%. It also gave a GI50 ([29]; Homo sapiens, five dose) of 5.44 µM, a GI50 ([30]; Homo sapiens, MCF7, five dose) of 3.44 µM and a GI% [30] of 82.77%. The GI% [31] was 33.89%, the GI50 ([31]; Homo sapiens, BT-549, five dose) was 17.6 µM and the GI50 ([32]; Homo sapiens, MDA-MB-468, five dose) was 3.72 µM. It also gave a GI% [32] of 60.54%, a GI50 ([33]; Homo sapiens, T47D, five dose) of 41 µM and a melting point of 199 to 201 °C.
